Values of other authors, collected in PubChem BioAssay AID1259410 (Chemical Carcinogenesis Research Information System (CCRIS), 2018).

System: rodent tumor promotion studies, tumor incidence
Test: CCRIS tumor promotion studies

For `C[C@]12CC[C@@H]3c4ccc(O)cc4CC[C@H]3[C@@H]1CC[C@@H]2O`, the outcome (Carcinogen: N-ETHYL-N-NITROSOUREA, 759-73-9, Doses [Carcinogen]: 12.5 MG/KG IN POLYETHYLENE GLYCOL ONCE, Doses [Promoter]: 0, 0.32 MG/PELLET IMPLANTED IN PERSISTENT ESTRUS MICE 1 WK PRIOR TO CARCINOGEN DOSE (STUDY DURATION: 16 WK), Route [Carcinogen]: INTRAUTERINE, Route [Promoter]: SUBCUTANEOUS, Species: MOUSE, Strain/Sex: CD-1/FEMALE) is listed as “uterus: adenocarcinoma”, the outcome (Carcinogen: N-ETHYL-N-NITROSOUREA, 759-73-9, Doses [Carcinogen]: 50 MG/KG BW IN POLYETHYLENE GLYCOL ONCE AT 10 WK OF AGE, Doses [Promoter]: 0, 0.5% IN CHOLESTEROL PELLET AT 9 WK OF AGE, REMOVED AFTER 8 WK (STUDY DURATION: 15 WK), Route [Carcinogen]: INTRAUTERINE, Route [Promoter]: SUBCUTANEOUS IMPLANT, Species: MOUSE, Strain/Sex: CD-1/FEMALE) is listed as “uterus: tumor” and the outcome (Carcinogen: N-ETHYL-N-NITROSOUREA, 759-73-9, Doses [Carcinogen]: 50 MG/KG BW IN POLYETHYLENE GLYCOL ONCE AT 10 WK OF AGE, Doses [Promoter]: 0, 0.5% IN CHOLESTEROL PELLET AT 11 WK OF AGE, REMOVED AFTER 8 WK (STUDY DURATION: 15 WK), Route [Carcinogen]: INTRAUTERINE, Route [Promoter]: SUBCUTANEOUS IMPLANT, Species: MOUSE, Strain/Sex: CD-1/FEMALE) is listed as “uterus: tumor”. The outcome (Carcinogen: N-ETHYL-N-NITROSOUREA, 759-73-9, Doses [Carcinogen]: 50 MG/KG BW IN POLYETHYLENE GLYCOL ONCE AT 10 WK OF AGE, Doses [Promoter]: 0, 0.5% IN CHOLESTEROL PELLET AT 14 WK OF AGE, REMOVED AFTER 8 WK (STUDY DURATION: 15 WK), Route [Carcinogen]: INTRAUTERINE, Route [Promoter]: SUBCUTANEOUS IMPLANT, Species: MOUSE, Strain/Sex: CD-1/FEMALE) was “uterus: tumor”, the outcome (Carcinogen: N-ETHYL-N-NITROSOUREA, 759-73-9, Doses [Carcinogen]: 50 MG/KG BW IN POLYETHYLENE GLYCOL ONCE AT 10 WK OF AGE, Doses [Promoter]: 0, 0.5% IN CHOLESTEROL PELLET AT 17 WK OF AGE, REMOVED AFTER 8 WK (STUDY DURATION: 15 WK), Route [Carcinogen]: INTRAUTERINE, Route [Promoter]: SUBCUTANEOUS IMPLANT, Species: MOUSE, Strain/Sex: CD-1/FEMALE) was “uterus: tumor” and the outcome (Carcinogen: N-METHYL-N'-NITRO-N-NITROSOGUANIDINE, 70-25-7, Doses [Carcinogen]: 50 PPM FOR 60 MIN, Doses [Promoter]: 0, 20 PPM IN DIET BEGINNING 14 WK POST CARCINOGEN DOSE (STUDY DURATION: 12 MO), Route [Carcinogen]: IMMERSION, Route [Promoter]: ORAL, Species: FISH, Strain/Sex: RAINBOW TROUT) was “liver: tumor”. For the same molecule, the outcome (Carcinogen: N-METHYL-N-NITROSOUREA, 684-93-5, Doses [Carcinogen]: 1 MG/100 G BW INJECTED INTO LEFT UTERINE TUBE ONCE, Doses [Promoter]: 0, 25 PPM IN DIET FOR 29 WK BEGINNING 1 WK POST CARCINOGEN DOSE (STUDY DURATION: 30 WK), Route [Carcinogen]: INJECTION, Route [Promoter]: ORAL, Species: MOUSE, Strain/Sex: ICR/FEMALE) was “uterus: adenocarcinoma”, the outcome (Carcinogen: N-METHYL-N-NITROSOUREA, 684-93-5, Doses [Carcinogen]: 40 MG/KG ONCE AT 50 D OF AGE, Doses [Promoter]: 0, 2.5 MG PELLET IMPLANTED ON BACK OF GONADECTOMIZED RATS MAINTAINED ON LOW- IODINE DIET (STUDY DURATION: 30 WK), Route [Carcinogen]: INTRAVENOUS, Route [Promoter]: SUBCUTANEOUS IMPLANT, Species: RAT, Strain/Sex: LONG-EVANS/FEMALE) was “thyroid: adenoma, carcinoma” and the outcome (Carcinogen: N-METHYL-N-NITROSOUREA, 684-93-5, Doses [Carcinogen]: 40 MG/KG ONCE AT 50 D OF AGE, Doses [Promoter]: 0, 2.5 MG PELLET IMPLANTED ON BACK OF GONADECTOMIZED RATS MAINTAINED ON LOW- IODINE DIET (STUDY DURATION: 30 WK), Route [Carcinogen]: INTRAVENOUS, Route [Promoter]: SUBCUTANEOUS IMPLANT, Species: RAT, Strain/Sex: LONG-EVANS/MALE) was “thyroid: adenoma, carcinoma”. The outcome (Doses [Carcinogen]: 0, 125 PPM IN STATIC SOLUTIONS OF WATER FOR 30 MIN ADMINISTERED TO 21 DAY OLD EMBRYOS, Doses [Promoter]: 0, 20 PPM BEGINNING 6 WK POST CARCINOGEN TREATMENT AND CONTINUING FOR 5 WK FOLLOWED BY CONTROL DIET FOR 1 WK THEN 0, 10, Doses [Promoter]: 0, 20 PPM BEGINNING 6 WK POST CARCINOGEN TREATMENT AND CONTINUING FOR 5 WK FOLLOWED BY CONTROL DIET FOR 1 WK THEN 0, 10, Route [Carcinogen]: IMMERSION, Route [Promoter]: ORAL, Species: FISH, Strain/Sex: MT. SHASTA RAINBOW TROUT) was “liver: hepatocellular carcinoma or mixed carcinoma or hepatocellular adenoma”, the outcome (Doses [Carcinogen]: 0.025 PPM IN STATIC SOLUTIONS OF WATER FOR 30 MIN ADMINISTERED TO 21 DAY OLD EMBRYOS, Doses [Promoter]: 0, 20 PPM BEGINNING 6 WK POST CARCINOGEN TREATMENT AND CONTINUING FOR 5 WK FOLLOWED BY CONTROL DIET FOR 1 WK THEN 0, 10, Doses [Promoter]: 0, 20 PPM BEGINNING 6 WK POST CARCINOGEN TREATMENT AND CONTINUING FOR 5 WK FOLLOWED BY CONTROL DIET FOR 1 WK THEN 0, 10, Route [Carcinogen]: IMMERSION, Route [Promoter]: ORAL, Species: FISH, Strain/Sex: MT. SHASTA RAINBOW TROUT) was “liver: hepatocellular carcinoma or mixed carcinoma” and the outcome (Doses [Carcinogen]: 0.25 PPM IN STATIC SOLUTIONS OF WATER FOR 30 MIN, Doses [Promoter]: 0, 5 PPM IN DIET BEGINNING 5 WK POST CARCINOGEN TREATMENT AND ALTERNATED EVERY OTHER WK WITH CONTROL DIET FOR DURATION O, Route [Carcinogen]: IMMERSION, Route [Promoter]: ORAL, Species: FISH, Strain/Sex: MT. SHASTA RAINBOW TROUT) was “liver: hepatocellular carcinoma or mixed carcinoma”. For the same molecule, the outcome (Doses [Carcinogen]: 0.5 PPM FOR 30 MIN, Doses [Promoter]: 0, 20 PPM IN DIET BEGINNING 14 WK POST CARCINOGEN DOSE (STUDY DURATION: 12 MO), Route [Carcinogen]: IMMERSION, Route [Promoter]: ORAL, Species: FISH, Strain/Sex: RAINBOW TROUT) was “liver: tumor”.

For `CCCCCCCCCCCCCCCCCCCCCCCCCCCC`, the outcome (Carcinogen: 7,12-DIMETHYLBENZ(A)ANTHRACENE, Doses [Carcinogen]: TOP, Route [Carcinogen]: DERMAL, Route [Promoter]: DERMAL, Species: MOUSE, Strain/Sex: MALE) is listed as “integumentary system (skin)”.

For `C=C1C[C@@H]2[C@H](CC[C@]3(C)C(=O)CC[C@@H]23)[C@@]2(C)C=CC(=O)C=C12`, the outcome (Carcinogen: N-Methyl-N-nitrosourea, 684-93-5, Doses [Carcinogen]: 50 mg/kg bw, intraperitoneal, twice on days 43 and 49 of age, Doses [Promoter]: 0, 0.0001, 0.001% in diet from 7 d before carcinogen administration for 12 wks (Study duration 12 wks), Route [Carcinogen]: intraperitoneal, Route [Promoter]: Oral, Species: Rat, Strain/Sex: Sprague-Dawley/Female (19-20/Group)) is listed as “mammary gland: various (statistically significant increase in tumor frequency, b”.

In the case of `COc1cccc(O)c1O`, the outcome (Carcinogen: DIETHYLNITROSAMINE, 55-18-5, N-METHYL-N-NITROSOUREA, 684-93-5, 1,2-DIMETHYLHYDRAZINE, 540-73-8, N-BUTYL-N-(4-HYDRO, Carcinogen: DIETHYLNITROSAMINE, 55-18-5, N-METHYL-N-NITROSOUREA, 684-93-5, 1,2-DIMETHYLHYDRAZINE, 540-73-8, N-BUTYL-N-(4-HYDRO, Doses [Carcinogen]: 100 MG/KG BW DEN ONCE THEN 20 MG/KG BW MNU 1/D FOR 4 D FOLLOWED BY 40 MG/KG BW DMH 1/D FOR 4 D, 0.05% BHBN IN DRINKING W, Doses [Promoter]: 0, 2% IN DIET FOR 24 WK BEGINNING 3 D POST CARCINOGEN TREATMENT (STUDY DURATION: 28 WK), Route [Carcinogen]: INTRAPERITONEAL, INTRAPERITONEAL, SUBCUTANEOUS, ORAL, Route [Carcinogen]: INTRAPERITONEAL, INTRAPERITONEAL, SUBCUTANEOUS, ORAL, Route [Promoter]: ORAL, Species: RAT, Strain/Sex: F344/MALE) is given as “forestomach: papilloma, squamous cell carcinoma or carcinoma in situ; glandular”.

In the case of `C=C(C)[C@@]12OC3(c4ccccc4)O[C@@H]1[C@@H]1[C@@H]4OC4(CO)[C@@H](O)[C@]4(O)C(=O)C(C)=C[C@H]4[C@@]1(O3)[C@H](C)[C@H]2OC(=O)/C=C/C=C/c1ccccc1` (some centres undefined), the outcome (Carcinogen: 7,12-DIMETHYLBENZ[A]ANTHRACENE, 57-97-6, Doses [Carcinogen]: 10 NMOL APPLIED TO BACK ONCE, Doses [Promoter]: 9 NMOL 2/WK FOR 19 WK BEGINNING 1 WK POST CARCINOGEN DOSE (STUDY DURATION: 40 WK), Route [Carcinogen]: DERMAL, Route [Promoter]: DERMAL, Species: MOUSE, Strain/Sex: HRA/SKH/FEMALE) is listed as “skin: papilloma”.

For `N[C@@H](CC(=O)O)C(=O)O`, the outcome (Carcinogen: N-BUTYL-N-(4-HYDROXYBUTYL)NITROSAMINE, 3817-11-6, Doses [Carcinogen]: 0.05% IN DRINKING WATER FOR 4 WK, Doses [Promoter]: 0, 5% IN DRINKING WATER FOR 36 WK BEGINNING POST CARCINOGEN TREATMENT (STUDY DURATION: 40 WK), Route [Carcinogen]: ORAL, Route [Promoter]: ORAL, Species: RAT, Strain/Sex: F344/FEMALE) is listed as “urinary bladder: carcinoma” and the outcome (Carcinogen: N-BUTYL-N-(4-HYDROXYBUTYL)NITROSAMINE, 3817-11-6, Doses [Carcinogen]: 0.05% IN DRINKING WATER FOR 4 WK, Doses [Promoter]: 0, 5% IN DRINKING WATER FOR 36 WK BEGINNING POST CARCINOGEN TREATMENT (STUDY DURATION: 40 WK), Route [Carcinogen]: ORAL, Route [Promoter]: ORAL, Species: RAT, Strain/Sex: F344/MALE) is listed as “urinary bladder: carcinoma”.
